Results: patent publication US20230151025A1, “SUBSTITUTED THIAZOLOPYRIDINES, SALTS THEREOF AND THEIR USE AS HERBICIDALLY ACTIVE SUBSTANCES” (Bayer Aktiengesellschaft, priority 2020, published 2023)

Test system: Alopecurus myosuroides (ALOMY)
Test: Herbicidal pre-emergence action (A), 1280 g/ha
Format: in vivo
Conditions: visual grading after ca. 3 weeks vs untreated controls, 100% = plants have died off, 0% = as control plants
How it was run: (§1)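 Visual grading of plant damage in percent (0% as untreated control, 100% dead) was done about 3 weeks after treatment. Compounds, as WP or EC in water with 0.5% additive, had been sprayed at 600 l/ha onto the covering soil of freshly sown sandy loam pots.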

Structure (SMILES) | ALOMY, herbicidal effect in percent (%)
Fc1cccc(-c2nc3ncsc3cc2Cl)c1 [Example I-068] | 100%
Cc1ccsc1-c1nc2ncsc2cc1Br [Example I-132] | 100%
Cc1cscc1-c1ccc2scnc2n1 [Example I-134] | 90%

Test system: Amaranthus retroflexus (AMARE)
Test: Herbicidal pre-emergence action (A), 1280 g/ha
Format: in vivo
Conditions: visual grading after ca. 3 weeks vs untreated controls
How it was run: as §1

Structure (SMILES) | herbicidal effect AMARE
Fc1cccc(-c2nc3ncsc3cc2Cl)c1 [Example I-068] | 90%
Cc1ccsc1-c1nc2ncsc2cc1Br [Example I-132] | 100%

Test system: Digitaria sanguinalis (DIGSA)
Test: Herbicidal pre-emergence action (A), 1280 g/ha
Format: in vivo
Conditions: visual grading after ca. 3 weeks vs untreated controls, 100% = plants have died off, 0% = as control plants
How it was run: as §1

Structure (SMILES) | DIGSA, herbicidal effect in percent (%)
Fc1cccc(-c2nc3ncsc3cc2Cl)c1 [Example I-068] | 100%
Cc1ccsc1-c1nc2ncsc2cc1Br [Example I-132] | 100%

Test system: Echinochloa crus-galli (ECHCG)
Test: Herbicidal pre-emergence action (A), 1280 g/ha
Format: in vivo
Conditions: visual grading after ca. 3 weeks vs untreated controls, 100% = plants have died off, 0% = as control plants
How it was run: as §1

Structure (SMILES) | ECHCG, herbicidal effect in percent (%)
Fc1cccc(-c2nc3ncsc3cc2Cl)c1 [Example I-068] | 100%
Cc1ccsc1-c1nc2ncsc2cc1Br [Example I-132] | 100%

Test system: Kochia scoparia (KCHSC; Bassia scoparia)
Test: Herbicidal pre-emergence action (A), 1280 g/ha
Format: in vivo
Conditions: visual grading after ca. 3 weeks vs untreated controls
How it was run: as §1

Structure (SMILES) | herbicidal effect KCHSC
Fc1cccc(-c2nc3ncsc3cc2Cl)c1 [Example I-068] | 100%
Cc1ccsc1-c1nc2ncsc2cc1Br [Example I-132] | 100%

Test system: Lolium rigidum (LOLRI)
Test: Herbicidal pre-emergence action (A), 1280 g/ha
Format: in vivo
Conditions: visual grading after ca. 3 weeks vs untreated controls, 100% = plants have died off, 0% = as control plants
How it was run: as §1

Structure (SMILES) | LOLRI, herbicidal effect in percent (%)
Fc1cccc(-c2nc3ncsc3cc2Cl)c1 [Example I-068] | 100%
Cc1ccsc1-c1nc2ncsc2cc1Br [Example I-132] | 100%
Cc1cscc1-c1ccc2scnc2n1 [Example I-134] | 100%

Test system: Matricaria inodora (MATIN)
Test: Herbicidal pre-emergence action (A), 1280 g/ha
Format: in vivo
Conditions: visual grading after ca. 3 weeks vs untreated controls
How it was run: as §1

Structure (SMILES) | herbicidal effect MATIN
Cc1ccsc1-c1nc2ncsc2cc1Br [Example I-132] | 90%
Cc1cscc1-c1ccc2scnc2n1 [Example I-134] | 90%

Test system: Poa annua (POAAN)
Test: Herbicidal pre-emergence action (A), 1280 g/ha
Format: in vivo
Conditions: visual grading after ca. 3 weeks vs untreated controls, 100% = plants have died off, 0% = as control plants
How it was run: as §1

Structure (SMILES) | POAAN, herbicidal effect in percent (%)
Fc1cccc(-c2nc3ncsc3cc2Cl)c1 [Example I-068] | 100%
Cc1ccsc1-c1nc2ncsc2cc1Br [Example I-132] | 100%
Cc1cscc1-c1ccc2scnc2n1 [Example I-134] | 90%

Test system: Setaria viridis (SETVI)
Test: Herbicidal pre-emergence action (A), 1280 g/ha
Format: in vivo
Conditions: visual grading after ca. 3 weeks vs untreated controls
How it was run: as §1

Structure (SMILES) | herbicidal effect SETVI
Fc1cccc(-c2nc3ncsc3cc2Cl)c1 [Example I-068] | 100%
Cc1ccsc1-c1nc2ncsc2cc1Br [Example I-132] | 100%
Cc1cscc1-c1ccc2scnc2n1 [Example I-134] | 100%

Test system: Stellaria media (STEME)
Test: Herbicidal pre-emergence action (A), 1280 g/ha
Format: in vivo
Conditions: visual grading after ca. 3 weeks vs untreated controls
How it was run: as §1

Structure (SMILES) | herbicidal effect STEME
Fc1cccc(-c2nc3ncsc3cc2Cl)c1 [Example I-068] | 100%
Cc1ccsc1-c1nc2ncsc2cc1Br [Example I-132] | 90%
Cc1cscc1-c1ccc2scnc2n1 [Example I-134] | 100%

Test system: Veronica persica (VERPE)
Test: Herbicidal pre-emergence action (A), 1280 g/ha
Format: in vivo
Conditions: visual grading after ca. 3 weeks vs untreated controls
How it was run: as §1

Structure (SMILES) | herbicidal effect VERPE
Fc1cccc(-c2nc3ncsc3cc2Cl)c1 [Example I-068] | 90%
Cc1ccsc1-c1nc2ncsc2cc1Br [Example I-132] | 100%

Test system: Abutilon theophrasti (ABUTH)
Test: Herbicidal post-emergence action (B), 1280 g/ha
Format: in vivo
Conditions: rated visually after about 3 weeks vs untreated controls
How it was run: (§2)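 Greenhouse-grown weeds at the one-leaf stage received a foliar spray of the formulated compound (WP or EC, 0.5% additive, 600 L/ha). Damage was scored visually after about 3 weeks on a 0–100% scale against untreated plants.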

Structure (SMILES) | herbicidal activity ABUTH
Fc1cccc(-c2nc3ncsc3cc2Cl)c1 [Example I-068] | 90%
Cc1ccsc1-c1nc2ncsc2cc1Br [Example I-132] | 90%

Test system: Alopecurus myosuroides (ALOMY)
Test: Herbicidal post-emergence action (B), 1280 g/ha
Format: in vivo
Conditions: rated visually after about 3 weeks vs untreated controls
How it was run: as §2

Structure (SMILES) | herbicidal activity ALOMY
Fc1cccc(-c2nc3ncsc3cc2Cl)c1 [Example I-068] | 90%
Cc1ccsc1-c1nc2ncsc2cc1Br [Example I-132] | 100%

Test system: Amaranthus retroflexus (AMARE)
Test: Herbicidal post-emergence action (B), 1280 g/ha
Format: in vivo
Conditions: rated visually after about 3 weeks vs untreated controls
How it was run: as §2

Structure (SMILES) | herbicidal activity AMARE
Fc1cccc(-c2nc3ncsc3cc2Cl)c1 [Example I-068] | 90%
Cc1ccsc1-c1nc2ncsc2cc1Br [Example I-132] | 90%
Cc1cscc1-c1ccc2scnc2n1 [Example I-134] | 90%

Test system: Digitaria sanguinalis (DIGSA)
Test: Herbicidal post-emergence action (B), 1280 g/ha
Format: in vivo
Conditions: rated visually after about 3 weeks vs untreated controls
How it was run: as §2

Structure (SMILES) | herbicidal activity DIGSA
Fc1cccc(-c2nc3ncsc3cc2Cl)c1 [Example I-068] | 100%
Cc1ccsc1-c1nc2ncsc2cc1Br [Example I-132] | 90%

Test system: Echinochloa crus-galli (ECHCG)
Test: Herbicidal post-emergence action (B), 1280 g/ha
Format: in vivo
Conditions: rated visually after about 3 weeks vs untreated controls
How it was run: as §2

Structure (SMILES) | herbicidal activity ECHCG
Cc1ccsc1-c1nc2ncsc2cc1Br [Example I-132] | 100%

Test system: Kochia scoparia (KCHSC; Bassia scoparia)
Test: Herbicidal post-emergence action (B), 1280 g/ha
Format: in vivo
Conditions: not given
How it was run: as §2

Structure (SMILES) | herbicidal effect KCHSC
Fc1cccc(-c2nc3ncsc3cc2Cl)c1 [Example I-068] | 100%
Cc1ccsc1-c1nc2ncsc2cc1Br [Example I-132] | 90%

Test system: Lolium rigidum (LOLRI)
Test: Herbicidal post-emergence action (B), 1280 g/ha
Format: in vivo
Conditions: one-leaf stage, rated after about 3 weeks vs untreated controls, 100% activity = the plants have died, 0% = like control plants
How it was run: as §2

Structure (SMILES) | LOLRI, activity rated visually (%)
Fc1cccc(-c2nc3ncsc3cc2Cl)c1 [Example I-068] | 90%
Cc1ccsc1-c1nc2ncsc2cc1Br [Example I-132] | 100%
Cc1cscc1-c1ccc2scnc2n1 [Example I-134] | 90%

Test system: Matricaria inodora (MATIN)
Test: Herbicidal post-emergence action (B), 1280 g/ha
Format: in vivo
Conditions: rated visually after about 3 weeks vs untreated controls
How it was run: as §2

Structure (SMILES) | herbicidal activity MATIN
Cc1ccsc1-c1nc2ncsc2cc1Br [Example I-132] | 90%

Test system: Poa annua (POAAN)
Test: Herbicidal post-emergence action (B), 1280 g/ha
Format: in vivo
Conditions: rated visually after about 3 weeks vs untreated controls
How it was run: as §2

Structure (SMILES) | herbicidal activity POAAN
Fc1cccc(-c2nc3ncsc3cc2Cl)c1 [Example I-068] | 100%
Cc1ccsc1-c1nc2ncsc2cc1Br [Example I-132] | 90%
Cc1cscc1-c1ccc2scnc2n1 [Example I-134] | 90%

Test system: Setaria viridis (SETVI)
Test: Herbicidal post-emergence action (B), 1280 g/ha
Format: in vivo
Conditions: rated visually after about 3 weeks vs untreated controls
How it was run: as §2

Structure (SMILES) | herbicidal activity SETVI
Cc1ccsc1-c1nc2ncsc2cc1Br [Example I-132] | 90%

Test system: Stellaria media (STEME)
Test: Herbicidal post-emergence action (B), 1280 g/ha
Format: in vivo
Conditions: not given
How it was run: as §2

Structure (SMILES) | herbicidal effect STEME
Fc1cccc(-c2nc3ncsc3cc2Cl)c1 [Example I-068] | 90%
Cc1ccsc1-c1nc2ncsc2cc1Br [Example I-132] | 100%

Test system: Veronica persica (VERPE)
Test: Herbicidal post-emergence action (B), 1280 g/ha
Format: in vivo
Conditions: not given
How it was run: as §2

Structure (SMILES) | herbicidal effect VERPE
Fc1cccc(-c2nc3ncsc3cc2Cl)c1 [Example I-068] | 100%
Cc1ccsc1-c1nc2ncsc2cc1Br [Example I-132] | 100%

Test system: Alopecurus myosuroides (ALOMY)
Test: Herbicidal pre-emergence action (C), 320 g/ha
Format: in vivo
Conditions: ca. 3 weeks
From the text: (§3) ABUTH: Abutilon theophrasti AGSTE: Agrostis tenuis ALOMY: Alopecurus myosuroides AMARE Amaranthus retroflexus DIGSA: Digitaria sanguinalis ECHCG: Echinochloa crus-galli KCHSC: Kochia scoparia LOLRI: Lolium rigidum MATIN: Matricaria inodora POAAN: Poa annua POLCO: Polygonum convolvulus SETVI: Setaria viridis STEME: Stellaria media VERPE: Veronica persica VIOTR: Viola tricolor
(§4) Seeds of mono- and dicotyledonous weed plants and crop plants were sown, in plastic or organic planting pots, in sandy loam and covered with soil. The compounds according to the invention, formulated in the form of wettable powders (WP) or as emulsifiable concentrates (EC), were applied to the surface of the covering soil as aqueous suspension or emulsion, with the addition of 0.5% of an additive, at an application rate of 600 l of water/ha (converted).
(§5) Following treatment, the pots were placed in a greenhouse and kept under optimum growth conditions for the test plants. The visual grading of the damage to the test plants was carried out after ca. 3 weeks in comparison to untreated controls (herbicidal effect in percent (%): 100% effect=plants have died off, 0% effect=as control plants).
(§6) Tables C1 to C13 below show the effects of selected compounds of the general formula (I) according to table 1 on various harmful plants and an application rate corresponding to 320 g/ha obtained by the experimental procedure mentioned above.

Structure (SMILES) | herbicidal effect ALOMY
Fc1cccc(-c2nc3ncsc3cc2Cl)c1 [Example I-068] | 100%

Test system: Amaranthus retroflexus (AMARE)
Test: Herbicidal pre-emergence action (C), 320 g/ha
Format: in vivo
Conditions: ca. 3 weeks
From the text: as §3, §4, §5, §6

Structure (SMILES) | herbicidal effect AMARE
Fc1cccc(-c2nc3ncsc3cc2Cl)c1 [Example I-068] | 90%
Cc1ccsc1-c1nc2ncsc2cc1Br [Example I-132] | 90%

Test system: Echinochloa crus-galli (ECHCG)
Test: Herbicidal pre-emergence action (C), 320 g/ha
Format: in vivo
Conditions: ca. 3 weeks
From the text: as §3, §4, §5, §6

Structure (SMILES) | herbicidal effect ECHCG
Cc1ccsc1-c1nc2ncsc2cc1Br [Example I-132] | 100%

Test system: Lolium rigidum (LOLRI)
Test: Herbicidal pre-emergence action (C), 320 g/ha
Format: in vivo
Conditions: ca. 3 weeks
From the text: as §3, §4, §5, §6

Structure (SMILES) | herbicidal effect LOLRI
Cc1ccsc1-c1nc2ncsc2cc1Br [Example I-132] | 100%

Test system: Setaria viridis (SETVI)
Test: Herbicidal pre-emergence action (C), 320 g/ha
Format: in vivo
Conditions: ca. 3 weeks
From the text: as §3, §4, §5, §6

Structure (SMILES) | herbicidal effect SETVI
Fc1cccc(-c2nc3ncsc3cc2Cl)c1 [Example I-068] | 100%
Cc1ccsc1-c1nc2ncsc2cc1Br [Example I-132] | 100%

Test system: Veronica persica (VERPE)
Test: Herbicidal pre-emergence action (C), 320 g/ha
Format: in vivo
Conditions: ca. 3 weeks
From the text: as §3, §4, §5, §6

Structure (SMILES) | herbicidal effect VERPE
Fc1cccc(-c2nc3ncsc3cc2Cl)c1 [Example I-068] | 80%

Test system: Amaranthus retroflexus (AMARE)
Test: Herbicidal post-emergence action (D), 320 g/ha
Format: in vivo
Conditions: ca. 3 weeks
From the text: as §3
Seeds of mono- and dicotyledonous weed plants and crop plants were sown, in plastic or organic planting pots, in sandy loam, covered with soil and grown in a greenhouse under controlled growth conditions. 2 to 3 weeks after sowing, the test plants were sprayed in the single-leaf stage. The compounds according to the invention, formulated in form of wettable powders (WP) or as emulsifiable concentrates (EC), were sprayed onto the green plant parts as aqueous suspension or emulsion, with the addition of 0.5% of an additive, at an application rate of 600 l of water/ha (converted). The test plants were placed in the greenhouse for ca. 3 weeks under optimum growth conditions, and then the effect of the preparations was assessed visually in comparison with untreated controls (herbicidal effect in percent (%): 100% effect=plants have died off, 0% effect=as control plants).
Tables D1 to D13 below show the effects of selected compounds of the general formula (I) according to table 1 on various harmful plants and an application rate corresponding to 320 g/ha obtained by the experimental procedure mentioned above.

Structure (SMILES) | herbicidal effect AMARE
Fc1cccc(-c2nc3ncsc3cc2Cl)c1 [Example I-068] | 90%
